# Experimental data published in US20110190235A1, “BORON-CONTAINING SMALL MOLECULES AS ANTIPROTOZOAL AGENTS” (Anacor Pharmaceuticals, Inc., priority 2009, published 2011).
# Read-outs that look alike come from different tables or passages of the source.
# Tests used:
# [1] = L929 cytotoxicity evaluation (resazurin); format: cell-based; conditions: mouse, L929 mouse fibroblast cells; 72 hrs incubation; read-out: Cytotox L-929 IC50
# Outline: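 Mouse L929 fibroblasts (1×10^4/mL seeding, attached overnight) were treated 72 h at 37 °C, 5% CO2 with serially diluted compounds in DMSO in D-MEM/10% FBS. Viability read by resazurin fluorescence after 3–4 h (ex 544/em 590 nm); IC50 from sigmoidal fits of single data points.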
# [2] = Pharmacokinetic studies in mice (plasma, brain); format: in vivo; conditions: for Cmax: normalized to 25 mg/kg (nominal 25 mg/kg); for AUC(0-t) / AUC(0-inf): normalized to 25 mg/kg; for AUC(0-t): read-out: Exposure/trapezoid AUC0-18; for AUC(0-inf): read-out: Exposure/trapezoid AUC0-inf
# Description: Male CD-1 mice weighing approximately 25 g received the test article (E19 or 82 or E14 or 69) by either intravenous (IV), oral gavage (OG) or intra-peritoneal (IP) routes. Animals in IV group (6-10 animals, 1-2 per time point) received a single bolus injection of approximately 2 mg/kg of the test article. Animals receiving […], or as 4 repeat doses ([…], 1-2 per time point).
# All doses were administered as clear colorless solutions in either: 50% (v/v) PEG400:20% (v/v) ethanol:30% (v/v) carboxymethylcellulose (0.5% w/v in sterile water for injection, WFI), or as in situ sodium salts in 5% (m/v) dextrose:2% (v/v) ethanol in DWI. All dose solutions were delivered at 4 mL/kg. Animals were fasted for at least 4 hours before dosing, and for 2 hours after dosing.
# Blood samples and brain tissue were sampled from 1 or 2 animals/timepoint/group immediately before dosing and approximately 0.17, 0.5, 1, 2, 3, 4, 6, 8, 12, 18 and 24 hr after dosing for full pharmacokinetic and tissue analysis, or at 0.5, 2 and 4 hours post dosing to assess early-phase CNS disposition.
# Bioanalysis for test article in whole blood, plasma or brain tissue was performed by HPLC with tandem mass spectrometry (LC-MSMS). Whole blood and plasma samples were treated with 3 volumes of either acetonitrile or methanol to precipitate plasma proteins. Treated samples were centrifuged and supernatants removed for analysis. Brain tissues were weighed and homogenized mechanically in the presence of 1 volume of phosphate-buffered saline (PBS). The resulting tissue suspensions were then diluted with a further volume of PBS, and then treated in the same manner as whole blood or plasma.
# Extracted samples were assayed for test article by means of LC-MSMS employing reversed-phase chromatography coupled to a triple quadrupole mass spectrometer employing electrospray ionization in the positive ion mode. The analytical column was a Phenomenex Luna 3μ C8 50×2 mm, with an online sample purification step performed on a Phenomenex Synergi 4μ Polar RP 50×2 mm column.
# Test articles were eluted using a binary mobile phase gradient comprising 5 mM Ammonium Acetate: 0.1% formic acid in either MeOH or H2O.
# Non-compartmental analysis of plasma test article concentration versus time was performed in Microsoft Excel to generate pharmacokinetic parameters including: area under the curve (AUC), clearance (as Cl or Cl/F), volume of distribution (Vdss), half-life (t½), and bioavailability (F).
# [3] = Pharmacokinetic studies in rats (plasma, brain, CSF); format: in vivo; conditions: for half-life: read-out: t½ (converted); for Cmax / AUC(0-t) / AUC(0-inf): normalized to 25 mg/kg; for AUC(0-t): read-out: Exposure/trapezoid AUC0-18; for AUC(0-inf): read-out: Exposure/trapezoid AUC0-inf
# Description: Male Sprague Dawley rats weighing approximately 200 g received test article (E19 or 82) as a single oral gavage (OG) dose of approximately 25 mg/kg (approximately 10 animals per group).
# All doses were administered as clear colorless solutions as in situ sodium salts in 5% (m/v) dextrose:2% (v/v) ethanol in DWI. All dose solutions were delivered at 2 mL/kg. Animals were fasted for at least 4 hours before dosing, and for 2 hours after dosing.
# Blood and CSF samples and brain tissue were sampled from 1 animal/timepoint/group immediately before dosing and approximately 0.5, 1, 2, 3, 4, 6, 8, 12, 18 and 24 hr after dosing for full pharmacokinetic (plasma and CSF) and tissue (Brain) analysis.
# [4] = system: bloodstream-form trypanosome T. brucei brucei 427 strain; assay: Trypanosoma brucei brucei high-throughput in vitro drug sensitivity assay (resazurin); format: cell-based; conditions: Trypanosoma brucei, 72 h
# [5] = male, CD-1, mouse, brain, oral, mice
# [6] = male, CD-1, mouse, plasma, oral, mice
# [7] = male, Sprague Dawley, rat, CSF, oral, rats
# [8] = male, Sprague Dawley, rat, brain, oral, rats
# [9] = male, Sprague Dawley, rat, plasma, oral, rats
smiles,measurement,setting,value
CC1(C)OB(O)c2cc(NC(=O)c3ccc(F)cc3C(F)(F)F)ccc21 [compound 82],IC50 at 72 h,[1],> 10 µg/mL
same,CL/F,"[2]; male, CD-1, mouse, 25 mg/kg, plasma, oral, mice, read-out: Oral Clearance Cl/F (converted)",3.27 mL/min/kg
same,half-life,"[2]; male, CD-1, mouse, 25 mg/kg, plasma, oral, mice, read-out: t½ (converted)",6.9 h
same,Cmax,[2]; [5],7700 ng/mL
same,AUC(0-t),[2]; [5],64.9 µg·h/mL
same,AUC(0-inf),[2]; [5],65.5 µg·h/mL
same,Cmax,[2]; [6],9400 ng/mL
same,AUC(0-t),[2]; [6],108 µg·h/mL
same,AUC(0-inf),[2]; [6],128 µg·h/mL
same,brain concentrations relative to the MIC,"[2]; mouse and rat, brain (and CSF)",maintains concentrations above the MIC for extended time periods
same,fold improved exposure in brain tissue over E19,"[2]; mouse, in vivo",6-12 fold
same,Fold improvement 82 vs. E19: Oral Clearance Cl/F,"[2]; mouse, in vivo, po",1.2 fold
same,Fold improvement 82 vs. E19: t½,"[2]; mouse, in vivo, po",0.4 fold
same,fold improved plasma exposure (based on AUC) over E19,"[2]; mouse, in vivo, po",2-4 fold
same,Fold improvement 82 vs. E19: Cmax,"[2]; mouse, in vivo, po, brain",1.6 fold
same,Fold improvement 82 vs. E19: Cmax,"[2]; mouse, in vivo, po, plasma",1.2 fold
same,dose proportionality of brain exposure,[2]; oral delivery to mice,generally dose-proportional increases
same,dose proportionality of plasma exposure,[2]; oral delivery to mice,greater than proportional at doses above 20 mg/kg
same,F (% of IV),"[2]; plasma, oral, mice",45%
same,plasma PK when administered to rodents,"[2]; rodents, plasma","good exposure (AUC and Cmax), promising bioavailability, prolonged half-life, and low clearance"
same,half-life,"[3]; male, Sprague Dawley, rat, 25 mg/kg, CSF, oral, rats",8.7 h
same,half-life,"[3]; male, Sprague Dawley, rat, 25 mg/kg, brain, oral, rats",9.5 h
same,CL/F,"[3]; male, Sprague Dawley, rat, 25 mg/kg, plasma, oral, rats, read-out: Oral Clearance Cl/F (converted)",1.53 mL/min/kg
same,half-life,"[3]; male, Sprague Dawley, rat, 25 mg/kg, plasma, oral, rats",15.5 h
same,Cmax,[3]; [7],1000 ng/mL
same,AUC(0-t),[3]; [7],13.6 µg·h/mL
same,AUC(0-inf),[3]; [7],16.8 µg·h/mL
same,Cmax,[3]; [8],7900 ng/mL
same,AUC(0-t),[3]; [8],120 µg·h/mL
same,AUC(0-inf),[3]; [8],152 µg·h/mL
same,Cmax,[3]; [9],17000 ng/mL
same,AUC(0-t),[3]; [9],272 µg·h/mL
same,AUC(0-inf),[3]; [9],433 µg·h/mL
same,time levels in brain and CSF are above the in vitro MIC,[3]; nominal single oral dose of 25 mg/kg to rats,approximately 12 hours
same,fold improved exposure in CSF over E19,"[3]; rat, in vivo",approximately 4 fold
same,Fold improvement 82 vs. E19: Oral Clearance Cl/F,"[3]; rat, in vivo, po",2.8 fold
same,Fold improvement 82 vs. E19: t½,"[3]; rat, in vivo, po, CSF",2.8 fold
same,Fold improvement 82 vs. E19: t½,"[3]; rat, in vivo, po, brain",3.7 fold
same,Fold improvement 82 vs. E19: t½,"[3]; rat, in vivo, po, plasma",1.9 fold
same,IC50,[4]; read-out: T. b. brucei IC50 (nM),556 nM
same,IC50,[4]; read-out: T.b. brucei IC50 (ug/mL),0.204 µg/mL
